In one data set the target is T1, GABAAα5 receptor (Rattus norvegicus, UniProt P18508+P19969).
T1 construct: occupancy in the hippocampus (a region of high GABAAα5 receptor density); from tissue; host or cells: rat brain in vivo: hippocampus versus cerebellum
Put plainly: in vivo. Format: in vivo, Long Evans rats. The following applies: i.v. The source says:
Food and water were available ad libitum.

In a further data set the target is T2, GABAA receptors (α5β2γ2) (Homo sapiens, UniProt P18507+P31644).
T2 construct: expressed in transfected cells
T2 sequence (P31644 32-462): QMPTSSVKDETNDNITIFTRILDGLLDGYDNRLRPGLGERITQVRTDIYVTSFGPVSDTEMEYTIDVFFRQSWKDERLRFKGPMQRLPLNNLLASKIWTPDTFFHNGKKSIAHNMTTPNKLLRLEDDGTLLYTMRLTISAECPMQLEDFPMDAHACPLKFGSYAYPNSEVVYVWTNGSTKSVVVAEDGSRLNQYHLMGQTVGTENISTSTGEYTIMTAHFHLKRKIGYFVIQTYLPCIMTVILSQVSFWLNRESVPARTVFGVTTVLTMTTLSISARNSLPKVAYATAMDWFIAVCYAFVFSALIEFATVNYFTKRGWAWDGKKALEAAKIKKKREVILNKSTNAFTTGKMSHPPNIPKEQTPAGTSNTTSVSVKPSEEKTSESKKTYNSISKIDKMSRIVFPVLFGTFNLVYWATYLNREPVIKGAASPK
T2 sequence (P47870 25-512, further chain): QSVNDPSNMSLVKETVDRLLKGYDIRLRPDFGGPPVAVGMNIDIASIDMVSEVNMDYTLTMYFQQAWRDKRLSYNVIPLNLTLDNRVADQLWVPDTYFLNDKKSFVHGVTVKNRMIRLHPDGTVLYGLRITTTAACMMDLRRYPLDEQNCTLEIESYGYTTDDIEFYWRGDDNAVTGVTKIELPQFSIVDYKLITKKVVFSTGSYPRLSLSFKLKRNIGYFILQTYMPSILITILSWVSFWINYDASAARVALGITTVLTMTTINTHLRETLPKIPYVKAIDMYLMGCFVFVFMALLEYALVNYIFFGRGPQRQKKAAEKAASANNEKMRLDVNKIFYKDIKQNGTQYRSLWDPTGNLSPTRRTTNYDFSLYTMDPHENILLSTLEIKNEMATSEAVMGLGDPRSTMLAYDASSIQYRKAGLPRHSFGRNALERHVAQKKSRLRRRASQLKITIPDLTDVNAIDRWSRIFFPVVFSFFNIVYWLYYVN
T2 sequence (P18507 40-475): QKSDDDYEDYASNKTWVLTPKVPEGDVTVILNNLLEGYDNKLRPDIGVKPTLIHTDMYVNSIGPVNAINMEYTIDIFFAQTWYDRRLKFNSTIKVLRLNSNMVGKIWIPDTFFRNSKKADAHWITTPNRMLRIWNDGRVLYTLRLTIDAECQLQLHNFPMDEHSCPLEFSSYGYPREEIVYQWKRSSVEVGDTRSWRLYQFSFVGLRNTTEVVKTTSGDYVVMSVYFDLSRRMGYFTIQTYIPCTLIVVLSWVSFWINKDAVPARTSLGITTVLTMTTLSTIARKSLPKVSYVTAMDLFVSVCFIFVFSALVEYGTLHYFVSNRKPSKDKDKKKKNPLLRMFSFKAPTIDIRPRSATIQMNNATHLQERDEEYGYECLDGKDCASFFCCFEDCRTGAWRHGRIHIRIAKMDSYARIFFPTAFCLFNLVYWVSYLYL
The data set is described as follows: Positive allosteric modulator activity: potentiation of EC20 GABA current in oocytes. Format: cell-based. To be noted: read-out: GABA α5 Functional Data (potentiation of EC20 GABA); @ 100 nM; ranges. The gist of the method: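 Oocytes were injected with 1 ng cDNA (α5:β2:γ2 1:1:10 by weight) and recorded on day 2 (day 3 with 20% less cDNA) by two-electrode clamp (3M KCl electrodes, 0.5-3 megaohms) under MBS superfusion at 3 mL/min. Potentiation (%) is Itest divided by IGABA. Each oocyte received one concentration only.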

For the next data set, the target named is α5β3γ2 GABAA receptors (Homo sapiens, UniProt P18507+P31644). The data set is described as follows: [3H]Ro15-1788 binding, membranes of Ltk cells stably expressing α5β3γ2 GABAA receptors. The following applies: ranges; inhibition of [3H]Ro15-1788 binding.
α5β3γ2 GABAA receptors, sequence (P31644 32-462): as the sequence (P31644 32-462) above
α5β3γ2 GABAA receptors, sequence (P28472 26-473 partner): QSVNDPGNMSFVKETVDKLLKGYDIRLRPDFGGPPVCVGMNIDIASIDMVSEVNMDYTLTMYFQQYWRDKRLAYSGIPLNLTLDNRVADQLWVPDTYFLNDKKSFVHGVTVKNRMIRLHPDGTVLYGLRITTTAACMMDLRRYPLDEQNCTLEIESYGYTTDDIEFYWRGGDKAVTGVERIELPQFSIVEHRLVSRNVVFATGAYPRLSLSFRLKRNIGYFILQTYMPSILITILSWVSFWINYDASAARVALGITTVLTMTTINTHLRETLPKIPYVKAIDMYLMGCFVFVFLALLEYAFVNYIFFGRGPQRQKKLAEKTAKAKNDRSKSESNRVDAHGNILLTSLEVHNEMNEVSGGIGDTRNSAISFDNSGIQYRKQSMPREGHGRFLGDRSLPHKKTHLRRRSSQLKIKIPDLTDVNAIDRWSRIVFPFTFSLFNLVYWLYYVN
α5β3γ2 GABAA receptors, sequence (P18507 40-475): as the sequence (P18507 40-475) above

T1 sequence (P19969 32-464): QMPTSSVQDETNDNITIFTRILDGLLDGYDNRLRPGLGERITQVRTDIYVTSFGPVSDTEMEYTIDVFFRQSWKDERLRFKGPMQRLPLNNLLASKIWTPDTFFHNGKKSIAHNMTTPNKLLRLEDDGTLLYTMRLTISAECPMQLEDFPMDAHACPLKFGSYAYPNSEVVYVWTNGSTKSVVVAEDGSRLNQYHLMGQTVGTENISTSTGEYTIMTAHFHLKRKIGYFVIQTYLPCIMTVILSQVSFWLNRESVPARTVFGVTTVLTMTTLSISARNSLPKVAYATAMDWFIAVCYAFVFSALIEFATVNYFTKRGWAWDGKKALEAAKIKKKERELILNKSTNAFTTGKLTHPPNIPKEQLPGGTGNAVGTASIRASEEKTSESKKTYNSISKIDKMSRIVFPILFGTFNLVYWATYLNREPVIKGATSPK
T1 sequence (P18508 39-466): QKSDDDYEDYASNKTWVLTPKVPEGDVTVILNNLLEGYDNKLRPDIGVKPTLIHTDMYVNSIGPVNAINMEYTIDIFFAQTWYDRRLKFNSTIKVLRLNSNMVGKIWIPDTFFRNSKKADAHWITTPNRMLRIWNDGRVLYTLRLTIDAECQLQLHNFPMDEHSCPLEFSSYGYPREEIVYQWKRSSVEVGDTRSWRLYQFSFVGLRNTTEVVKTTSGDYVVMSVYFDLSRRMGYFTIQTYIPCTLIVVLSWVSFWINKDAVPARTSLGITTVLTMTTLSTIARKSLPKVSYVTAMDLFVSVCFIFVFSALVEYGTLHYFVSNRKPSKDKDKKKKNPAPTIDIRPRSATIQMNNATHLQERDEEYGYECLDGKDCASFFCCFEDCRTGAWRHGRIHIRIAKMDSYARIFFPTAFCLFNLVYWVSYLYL

Take `CCOC(=O)c1ncn2c1Cn1c(C)nnc1-c1cc(OC)ccc1-2` [Ethyl 3-methoxy-7-methyl-9H-benzo[f]imidazo[1,5-a][1,2,4]tri]: at GABAAα5 receptor (0.01-10 mg/kg), the “effect on binding of Ro 15-4513 in hippocampus” value was “blocked the binding of Ro154513 in the hippocampus” and the “effect on binding/levels of Ro 15-4513 in cerebellum” value is recorded as “did not affect binding of Ro15413 in the cerebellum”.

Take Ro 15-4513: at GABAAα5 receptor (tracer 1 μg/kg, after vehicle), the “levels of Ro 15-4513 in cerebellum” value worked out at 0.36 ± 0.02 ng/g, the “levels of Ro 15-4513 in hippocampus” value amounted to 1.93 ± 0.05 ng/g and the “levels of Ro 15-4513 in hippocampus compared with cerebellum” value is listed as above 5 fold.

On to `Clc1ccc2c(c1)-n1nncc1Cc1c(C3=NC[C@H](c4ccccc4)O3)ncn1-2` [Compound 513], for which, on GABAA receptors (α5β2γ2), the activation at 0.1 µM lay within 20 to 50%. Also, the Ki (as a rule, the equilibrium dissociation constant of an inhibitor or competing ligand from its target) on α5β3γ2 GABAA receptors was below 100 nM.

In the case of `FC(F)(F)c1ccc2c(c1)-n1nncc1Cc1c(-c3ncco3)ncn1-2` [Compound 475], the activation at 0.1 µM at GABAA receptors (α5β2γ2) is 5 to 20%. On α5β3γ2 GABAA receptors, this compound yielded a Ki below 100 nM.

For `CC(C)c1noc(-c2ncn3c2Cc2c(Cc4ccc(F)cc4)nnn2-c2cc(OC(F)F)ccc2-3)n1` [Compound 494], the activation at 0.1 µM on GABAA receptors (α5β2γ2) was 20 to 50%. The Ki on α5β3γ2 GABAA receptors was below 100 nM.

For the compound `COCc1nnc2n1Cc1c(C3=NC[C@H](c4ccc(Cl)cc4)O3)ncn1-c1ccc(Cl)cc1-2` [Compound 718], the activation at 0.1 µM at GABAA receptors (α5β2γ2) is 20 to 50%. Moreover, the Ki at α5β3γ2 GABAA receptors was below 100 nM.

Regarding `COc1ccc(C#Cc2ncn3c2Cc2cnnn2-c2cc(OC(F)F)ccc2-3)cc1` [Compound 498], the activation at 0.1 µM on GABAA receptors (α5β2γ2) was 5 to 20%. Also, at α5β3γ2 GABAA receptors, the Ki is below 100 nM.

In the case of `COc1ccc2c(c1)-n1nncc1Cc1c(C#CC(C)(C)C)ncn1-2` [Compound 535], the activation at 0.1 µM at GABAA receptors (α5β2γ2) was in the range of 5 to 20%. The compound also gave a Ki at α5β3γ2 GABAA receptors below 100 nM.

As for `COCc1nnn2c1Cc1c(C3=NC[C@H](c4ccc(Cl)cc4)O3)ncn1-c1ccc(OC)cc1-2` [Compound 636], the activation at 0.1 µM on GABAA receptors (α5β2γ2) lay within 5 to 20%. The Ki on α5β3γ2 GABAA receptors is below 100 nM.

Regarding `COCc1nnc2n1Cc1c(C#Cc3ccc(C)cn3)ncn1-c1ccc(OC)cc1-2` [Compound 562], on GABAA receptors (α5β2γ2), the activation at 0.1 µM lay within 20 to 50%. Also, the Ki at α5β3γ2 GABAA receptors is below 100 nM.

On to `COc1ccc([C@@H]2COC(c3ncn4c3Cc3cnnn3-c3cc(Cl)ccc3-4)=N2)cc1` [Compound 521], for which the activation at 0.1 µM at GABAA receptors (α5β2γ2) is 20 to 50%. For the same compound, the Ki on α5β3γ2 GABAA receptors is below 100 nM.

Consider `CCOC(=O)c1ncn2c1Cc1c(Cc3cccnc3)nnn1-c1cc(C)ccc1-2` [Compound 111], for which the activation at 0.1 µM at GABAA receptors (α5β2γ2) was 20 to 50%. On α5β3γ2 GABAA receptors, this compound registered a Ki below 100 nM.

In the case of `COc1ccc2c(c1)-n1nncc1Cc1c(C3=NCC(c4ccccn4)O3)ncn1-2` (stereo not shown) [Compound 628], the activation at 0.1 µM at GABAA receptors (α5β2γ2) was in the range of 20 to 50%. This compound showed a Ki on α5β3γ2 GABAA receptors below 100 nM.

For `Clc1ccc2c(c1)-n1nncc1Cc1c(C3=NCC(c4ccccn4)O3)ncn1-2` (stereo not shown) [Compound 627], the activation at 0.1 µM at GABAA receptors (α5β2γ2) lay within 20 to 50%. For the same compound, at α5β3γ2 GABAA receptors, the Ki was below 100 nM.

For the compound `COCc1nnn2c1Cc1c(C#CC(C)(C)C)ncn1-c1ccc(Cl)cc1-2` [Compound 640], at GABAA receptors (α5β2γ2), the activation at 0.1 µM was in the range of 20 to 50%. On α5β3γ2 GABAA receptors, this compound had a Ki below 100 nM.

Consider `COCc1nnn2c1Cc1c(C#Cc3ccc(OC)nc3)ncn1-c1ccc(Cl)cc1-2` [Compound 633], for which the activation at 0.1 µM on GABAA receptors (α5β2γ2) was in the range of 20 to 50%. Also, the Ki at α5β3γ2 GABAA receptors is below 100 nM.

With `COCc1nnc2n1Cc1c(C#Cc3cnccn3)ncn1-c1ccc(Cl)cc1-2` [Compound 576], the activation at 0.1 µM at GABAA receptors (α5β2γ2) lay in the range of 20 to 50%. Further, the Ki at α5β3γ2 GABAA receptors is below 100 nM.

As to `Cc1noc(-c2ncn3c2Cc2c(Cc4cccc(F)c4)nnn2-c2cc(C(F)(F)F)ccc2-3)n1` [Compound 482], the activation at 0.1 µM at GABAA receptors (α5β2γ2) lay in the range of 20 to 50%. The Ki at α5β3γ2 GABAA receptors was below 100 nM.

As for `Cc1noc(-c2ncn3c2Cc2cnnn2-c2cc(-c4ccccc4)ccc2-3)n1` [Compound 474], the activation at 0.1 µM on GABAA receptors (α5β2γ2) is 5 to 20%. For the same compound, the Ki at α5β3γ2 GABAA receptors is below 100 nM.

Turning to `COc1ccc2c(c1)-n1nncc1Cc1c(C#Cc3c[nH]nc3OC)ncn1-2` [Compound 663], the activation at 0.1 µM at GABAA receptors (α5β2γ2) fell in the range of 20 to 50%. Further, the Ki on α5β3γ2 GABAA receptors is below 100 nM.

For the compound `COc1ccc(C#Cc2ncn3c2Cc2cnnn2-c2cc(C(F)(F)F)ccc2-3)cc1` [Compound 499], the activation at 0.1 µM at GABAA receptors (α5β2γ2) fell in the range of 20 to 50%. In addition, the inhibitory constant (Ki) on α5β3γ2 GABAA receptors is below 100 nM.

Consider `COCc1nnc2n1Cc1c(C#Cc3ccn(C)n3)ncn1-c1ccc(Cl)cc1-2` [Compound 683], for which, on GABAA receptors (α5β2γ2), the activation at 0.1 µM is above 50%. This compound yielded a Ki on α5β3γ2 GABAA receptors below 100 nM.

On to `COCc1nnc2n1Cc1c(C#Cc3ccc(C)nc3)ncn1-c1ccc(OC)cc1-2` [Compound 561], for which the activation at 0.1 µM on GABAA receptors (α5β2γ2) lay within 20 to 50%. The Ki on α5β3γ2 GABAA receptors was below 100 nM.

As to `COCc1nnc2n1Cc1c(C#Cc3ccc4nccn4c3)ncn1-c1ccc(Cl)cc1-2` [Compound 678], the activation at 0.1 µM at GABAA receptors (α5β2γ2) lay within 20 to 50%. This compound also had an inhibition constant (Ki) at α5β3γ2 GABAA receptors below 100 nM.

As for `COCc1nnc2n1Cc1c(C#Cc3cccnc3OC)ncn1-c1ccc(OC)cc1-2` [Compound 615], the activation at 0.1 µM at GABAA receptors (α5β2γ2) is 20 to 50%. Further, on α5β3γ2 GABAA receptors, the Ki is below 100 nM.

Consider `COCc1nnc2n1Cc1c(C#Cc3ccc(OC)cc3)ncn1-c1ccc(Cl)cc1-2` [Compound 526], for which the activation at 0.1 µM on GABAA receptors (α5β2γ2) fell in the range of 5 to 20%. The compound further came in with a Ki on α5β3γ2 GABAA receptors below 100 nM.

For the compound `COCc1nnc2n1Cc1c(C#Cc3cnc(C)cn3)ncn1-c1ccc(Cl)cc1-2` [Compound 582], the activation at 0.1 µM at GABAA receptors (α5β2γ2) is above 50%. The compound further registered a Ki at α5β3γ2 GABAA receptors below 100 nM.

`FC(F)(F)c1ccc(C#Cc2ncn3c2Cc2cnnn2-c2cc(Cl)ccc2-3)nc1` [Compound 701]: at GABAA receptors (α5β2γ2), the activation at 0.1 µM is 5 to 20%. Also, the Ki on α5β3γ2 GABAA receptors is below 100 nM.

For `FC(F)Oc1ccc2c(c1)-n1nncc1Cc1c(C#CC3(c4ccccc4)CC3)ncn1-2` [Compound 504], the activation at 0.1 µM on GABAA receptors (α5β2γ2) lay in the range of 5 to 20%. At α5β3γ2 GABAA receptors, the Ki is below 100 nM.

Turning to `COCc1nnc2n1Cc1c(C#Cc3ccc4[nH]ccc4c3)ncn1-c1ccc(OC)cc1-2` [Compound 715], on GABAA receptors (α5β2γ2), the activation at 0.1 µM lay in the range of 20 to 50%. Moreover, the Ki at α5β3γ2 GABAA receptors is below 100 nM.

The values above are taken from patent US11414425B2 (priority 2018, dated 2022).
